Experimental data published in PMC5343665, “Cytochrome P450s in human immune cells regulate IL-22 and c-Kit via an AHR feedback loop” (Scientific Reports, 2017).

How the values were obtained:
Format in all cases: cell-based
CYP1A2 = biological target: T1, CYP1A2 (Homo sapiens, UniProt P05177); experiment: EROD (ethoxyresorufin deethylase) assay in V79 cells expressing human CYP1A2
T1 sequence (P05177 2-516): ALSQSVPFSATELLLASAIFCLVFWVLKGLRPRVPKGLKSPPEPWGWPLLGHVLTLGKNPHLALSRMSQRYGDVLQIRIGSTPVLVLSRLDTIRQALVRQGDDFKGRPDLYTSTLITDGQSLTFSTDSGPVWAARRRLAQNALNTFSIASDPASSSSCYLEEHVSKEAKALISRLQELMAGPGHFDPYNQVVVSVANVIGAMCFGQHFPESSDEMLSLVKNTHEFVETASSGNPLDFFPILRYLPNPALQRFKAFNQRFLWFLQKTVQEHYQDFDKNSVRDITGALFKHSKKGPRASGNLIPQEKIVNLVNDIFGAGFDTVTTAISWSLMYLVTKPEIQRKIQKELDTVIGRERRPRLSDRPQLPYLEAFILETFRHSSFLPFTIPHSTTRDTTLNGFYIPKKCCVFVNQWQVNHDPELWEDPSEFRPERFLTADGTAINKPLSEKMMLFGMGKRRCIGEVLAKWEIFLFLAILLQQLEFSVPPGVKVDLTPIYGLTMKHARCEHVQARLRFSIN

CYP1B1 = biological target: T2, CYP1B1 (Homo sapiens, UniProt Q16678); experiment: EROD (ethoxyresorufin deethylase) assay in V79 cells expressing human CYP1B1
T2 sequence (Q16678 1-543): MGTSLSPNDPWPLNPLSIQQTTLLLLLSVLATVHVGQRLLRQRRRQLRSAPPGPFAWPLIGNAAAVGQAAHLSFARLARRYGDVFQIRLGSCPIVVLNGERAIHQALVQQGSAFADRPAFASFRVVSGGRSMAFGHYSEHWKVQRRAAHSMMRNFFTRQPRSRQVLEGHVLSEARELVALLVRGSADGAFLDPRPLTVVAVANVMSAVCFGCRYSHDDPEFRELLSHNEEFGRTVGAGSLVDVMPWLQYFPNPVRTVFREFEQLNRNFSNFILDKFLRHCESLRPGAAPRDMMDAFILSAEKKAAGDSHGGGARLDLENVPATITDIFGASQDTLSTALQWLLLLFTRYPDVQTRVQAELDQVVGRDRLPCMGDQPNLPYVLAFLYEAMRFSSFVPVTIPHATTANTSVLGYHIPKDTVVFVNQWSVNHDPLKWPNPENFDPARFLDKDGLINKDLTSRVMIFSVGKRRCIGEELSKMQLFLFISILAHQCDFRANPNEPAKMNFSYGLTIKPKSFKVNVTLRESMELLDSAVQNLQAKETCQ

CYP1A1 = biological target: T3, CYP1A1 (Homo sapiens, UniProt P04798); experiment: EROD (ethoxyresorufin deethylase) assay in V79 cells expressing human CYP1A1
T3 sequence (P04798 1-512): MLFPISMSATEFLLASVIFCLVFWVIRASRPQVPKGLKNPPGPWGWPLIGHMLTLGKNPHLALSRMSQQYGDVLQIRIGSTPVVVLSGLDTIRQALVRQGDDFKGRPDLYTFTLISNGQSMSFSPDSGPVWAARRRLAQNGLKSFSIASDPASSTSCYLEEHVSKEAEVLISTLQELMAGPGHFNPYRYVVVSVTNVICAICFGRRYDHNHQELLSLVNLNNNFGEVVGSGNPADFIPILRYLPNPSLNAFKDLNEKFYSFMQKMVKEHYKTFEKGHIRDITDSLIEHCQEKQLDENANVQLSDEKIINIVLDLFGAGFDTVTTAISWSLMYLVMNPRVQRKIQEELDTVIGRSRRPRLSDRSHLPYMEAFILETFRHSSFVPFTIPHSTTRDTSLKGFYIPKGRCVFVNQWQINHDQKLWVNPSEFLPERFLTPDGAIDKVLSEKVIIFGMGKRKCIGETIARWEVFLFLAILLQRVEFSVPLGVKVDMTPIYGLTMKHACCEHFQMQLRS

In the case of CC#Cc1ccc2ccc3cccc4ccc1c2c34 [1-PP, 1-(1-propynyl)-pyrene], the IC50 (CYP1A2) is reported as 650 nM, the IC50 (CYP1B1) is reported as 218 nM and the IC50 (CYP1A1) is reported as 5 nM.
